Bridge positions count the residues as written; N and C are the ends. Square brackets hold non-standard residues; d marks the D form. Peptide text beside a SMILES is read from it. Nle = CCCC[C@H](N)C(=O)O

This assay deals with T1, human Kv1.3 voltage-gated K+ channel (Homo sapiens, UniProt P22001).
T1 construct: host or cells: CHO-DUKX
T1 sequence (P22001 whole entry): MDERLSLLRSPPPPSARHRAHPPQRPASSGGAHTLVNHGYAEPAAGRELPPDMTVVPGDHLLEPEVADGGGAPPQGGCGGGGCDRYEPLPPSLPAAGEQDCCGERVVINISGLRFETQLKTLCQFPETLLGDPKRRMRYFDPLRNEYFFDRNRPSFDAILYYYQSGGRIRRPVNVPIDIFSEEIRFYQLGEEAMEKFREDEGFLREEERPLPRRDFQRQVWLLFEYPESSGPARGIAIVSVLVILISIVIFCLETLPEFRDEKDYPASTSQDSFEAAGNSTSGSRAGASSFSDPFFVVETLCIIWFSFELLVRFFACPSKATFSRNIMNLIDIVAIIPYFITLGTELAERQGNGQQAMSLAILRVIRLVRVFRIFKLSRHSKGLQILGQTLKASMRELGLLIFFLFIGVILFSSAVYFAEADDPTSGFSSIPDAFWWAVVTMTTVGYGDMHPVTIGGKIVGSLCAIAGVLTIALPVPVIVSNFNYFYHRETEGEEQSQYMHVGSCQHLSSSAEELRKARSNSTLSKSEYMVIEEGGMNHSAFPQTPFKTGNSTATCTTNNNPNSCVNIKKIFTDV
Put plainly: cell-based. Conditions: inhibition of thallium flux, CHO-DUKX cells with human Kv1.3; read-out: IC50.
With `CC[C@H](C)[C@@H]1NC(=O)[C@H](C)NC(=O)[C@H](CCCCN)NC(=O)[C@H](CC(C)C)NC(=O)[C@@H]2CSSC[C@@H](C(=O)N[C@@H](Cc3ccc(O)cc3)C(=O)N3CCC[C@H]3C(=O)N[C@@H](CCCNC(=N)N)C(=O)O)NC(=O)[C@H](CCCCN)NC(=O)[C@@H]3CSSC[C@H](NC(=O)[C@H](CCC(=O)O)NC(=O)[C@H](C(C)C)NC(=O)[C@H](CO)NC(=O)[C@H](C)NC(=O)[C@H](CO)NC(=O)[C@@H](NC(=O)[C@H](CCCNC(=N)N)NC(=O)[C@@H](NC(=O)[C@H](CC(=O)O)NC(=O)[C@H](CCSC)NC(=O)[C@@H](N)CC(N)=O)C(C)C)CSSC[C@H](NC(=O)[C@H](CCCCN)NC(=O)CNC(=O)[C@H](Cc4ccccc4)NC(=O)[C@H]([C@@H](C)CC)NC(=O)[C@H](CO)NC(=O)CNC1=O)C(=O)N[C@@H](CCSC)C(=O)N[C@@H](CC(N)=O)C(=O)N[C@@H](CCCCN)C(=O)N[C@@H](CCCCN)C(=O)N3)C(=O)N[C@@H](CCCCN)C(=O)N[C@@H](CCC(N)=O)C(=O)N[C@@H](CCCCN)C(=O)N2` [Compound 9] (H-NMDVRCSASVECKQKCLKAIGSIFGKCMNKKCKCYPR-OH; disulfide 6-27, 12-32, 16-34), the 50% inhibitory concentration (IC50) (in general, the concentration at which inhibition is half-maximal) came out at 530 pM.

For the compound `CC[C@H](C)[C@@H]1NC(=O)[C@H](C)NC(=O)[C@H](CC(=O)O)NC(=O)[C@H](CCCCN)NC(=O)[C@@H]2CSSC[C@@H](C(=O)N[C@@H](Cc3ccc(O)cc3)C(=O)N3CCC[C@H]3C(=O)N[C@@H](CCCNC(=N)N)C(=O)O)NC(=O)[C@H](CCCCN)NC(=O)[C@@H]3CSSC[C@H](NC(=O)[C@H](CCC(=O)O)NC(=O)[C@H](C(C)C)NC(=O)[C@H](CO)NC(=O)[C@H](C)NC(=O)[C@H](CO)NC(=O)[C@@H](NC(=O)[C@H](CCCNC(=N)N)NC(=O)[C@H](CCSC)NC(=O)[C@H](CC(=O)O)NC(=O)[C@H](CCSC)NC(=O)[C@@H](N)CC(N)=O)CSSC[C@H](NC(=O)[C@H](CCCCN)NC(=O)CNC(=O)[C@H](Cc4ccccc4)NC(=O)[C@H]([C@@H](C)CC)NC(=O)[C@H](CO)NC(=O)CNC1=O)C(=O)N[C@@H](CCSC)C(=O)N[C@@H](CC(N)=O)C(=O)N[C@@H](CCCCN)C(=O)N[C@@H](CCCCN)C(=O)N3)C(=O)N[C@@H](CCCCN)C(=O)N[C@@H](CCC(N)=O)C(=O)N[C@@H](CCCCN)C(=O)N2` [Compound 10] (H-NMDMRCSASVECKQKCKDAIGSIFGKCMNKKCKCYPR-OH; disulfide 6-27, 12-32, 16-34), the half-inhibitory concentration (IC50) is 570 pM.

On to `CC[C@H](C)[C@@H]1NC(=O)[C@H](C)NC(=O)[C@H](CCCCN)NC(=O)[C@H](CC(C)C)NC(=O)[C@@H]2CSSC[C@@H](C(=O)N[C@@H](Cc3ccc(O)cc3)C(=O)N3CCC[C@H]3C(=O)N[C@@H](CCCNC(=N)N)C(=O)O)NC(=O)[C@H](CCCCN)NC(=O)[C@@H]3CSSC[C@H](NC(=O)[C@H](CCC(=O)O)NC(=O)[C@H](C(C)C)NC(=O)[C@H](CO)NC(=O)[C@H](C)NC(=O)[C@H](CO)NC(=O)[C@@H](NC(=O)[C@H](CCCNC(=N)N)NC(=O)[C@H](CCSC)NC(=O)[C@H](CC(=O)O)NC(=O)[C@H](CCSC)NC(=O)[C@H](CC(N)=O)NC(=O)CNC(=O)CN)CSSC[C@H](NC(=O)[C@H](CCCCN)NC(=O)CNC(=O)[C@H](Cc4ccccc4)NC(=O)[C@H]([C@@H](C)CC)NC(=O)[C@H](CO)NC(=O)CNC1=O)C(=O)N[C@@H](CCSC)C(=O)N[C@@H](CC(N)=O)C(=O)N[C@@H](CCCCN)C(=O)N[C@@H](CCCCN)C(=O)N3)C(=O)N[C@@H](CCCCN)C(=O)N[C@@H](CCC(N)=O)C(=O)N[C@@H](CCCCN)C(=O)N2` [Compound 11] (H-GGNMDMRCSASVECKQKCLKAIGSIFGKCMNKKCKCYPR-OH; disulfide 8-29, 14-34, 18-36), for which the IC50 stood at 300 pM.

Take `CC[C@H](C)[C@@H]1NC(=O)[C@H](C)NC(=O)[C@H](CCCCN)NC(=O)[C@H](CC(C)C)NC(=O)[C@@H]2CSSC[C@@H](C(=O)N[C@@H](Cc3ccc(O)cc3)C(=O)N3CCC[C@H]3C(=O)N[C@@H](CCCNC(=N)N)C(=O)O)NC(=O)[C@H](CCCCN)NC(=O)[C@@H]3CSSC[C@H](NC(=O)[C@H](CCC(=O)O)NC(=O)[C@H](C(C)C)NC(=O)[C@H](CO)NC(=O)[C@H](C)NC(=O)[C@H](CO)NC(=O)[C@@H](NC(=O)[C@H](CCCNC(=N)N)NC(=O)[C@H](CCSC)NC(=O)[C@H](CC(=O)O)NC(=O)[C@H](CCSC)NC(=O)[C@H](CC(N)=O)NC(=O)CNC(=O)[C@@H](N)CO)CSSC[C@H](NC(=O)[C@H](CCCCN)NC(=O)CNC(=O)[C@H](Cc4ccccc4)NC(=O)[C@H]([C@@H](C)CC)NC(=O)[C@H](CO)NC(=O)CNC1=O)C(=O)N[C@@H](CCSC)C(=O)N[C@@H](CC(N)=O)C(=O)N[C@@H](CCCCN)C(=O)N[C@@H](CCCCN)C(=O)N3)C(=O)N[C@@H](CCCCN)C(=O)N[C@@H](CCC(N)=O)C(=O)N[C@@H](CCCCN)C(=O)N2` [Compound 13] (H-SGNMDMRCSASVECKQKCLKAIGSIFGKCMNKKCKCYPR-OH; disulfide 8-29, 14-34, 18-36): the 50% inhibitory concentration (IC50) is 260 pM.

On to `CCCC[C@H](NC(=O)[C@@H](N)CC(N)=O)C(=O)N[C@@H](CC(=O)O)C(=O)N[C@@H](CCSC)C(=O)N[C@@H](CCCNC(=N)N)C(=O)N[C@H]1CSSC[C@@H]2NC(=O)[C@H](CCCCN)NC(=O)CNC(=O)[C@H](Cc3ccccc3)NC(=O)[C@H]([C@@H](C)CC)NC(=O)[C@H](CO)NC(=O)CNC(=O)[C@H]([C@@H](C)CC)NC(=O)[C@H](C)NC(=O)[C@H](CCCCN)NC(=O)[C@H](CC(C)C)NC(=O)[C@@H]3CSSC[C@@H](C(=O)N[C@@H](Cc4ccc(O)cc4)C(=O)N4CCC[C@H]4C(=O)N[C@@H](CCCNC(=N)N)C(N)=O)NC(=O)[C@H](CCCCN)NC(=O)[C@H](CSSC[C@H](NC(=O)[C@H](CCC(=O)O)NC(=O)[C@H](C(C)C)NC(=O)[C@H](CO)NC(=O)[C@H](C)NC(=O)[C@H](CO)NC1=O)C(=O)N[C@@H](CCCCN)C(=O)N[C@@H](CCC(N)=O)C(=O)N[C@@H](CCCCN)C(=O)N3)NC(=O)[C@H](CCCCN)NC(=O)[C@H](CCCCN)NC(=O)[C@H](CC(N)=O)NC(=O)[C@H](CCSC)NC2=O` [Compound 14] (H-N[Nle]DMRCSASVECKQKCLKAIGSIFGKCMNKKCKCYPR-NH2; disulfide 6-27, 12-32, 16-34), for which the IC50 worked out at 160 pM.

With `CCCC[C@H](NC(=O)[C@H](CC(=O)O)NC(=O)[C@H](CCSC)NC(=O)[C@@H](N)CC(N)=O)C(=O)N[C@@H](CCCNC(=N)N)C(=O)N[C@H]1CSSC[C@@H]2NC(=O)[C@H](CCCCN)NC(=O)CNC(=O)[C@H](Cc3ccccc3)NC(=O)[C@H]([C@@H](C)CC)NC(=O)[C@H](CO)NC(=O)CNC(=O)[C@H]([C@@H](C)CC)NC(=O)[C@H](C)NC(=O)[C@H](CCCCN)NC(=O)[C@H](CC(C)C)NC(=O)[C@@H]3CSSC[C@@H](C(=O)N[C@@H](Cc4ccc(O)cc4)C(=O)N4CCC[C@H]4C(=O)N[C@@H](CCCNC(=N)N)C(N)=O)NC(=O)[C@H](CCCCN)NC(=O)[C@H](CSSC[C@H](NC(=O)[C@H](CCC(=O)O)NC(=O)[C@H](C(C)C)NC(=O)[C@H](CO)NC(=O)[C@H](C)NC(=O)[C@H](CO)NC1=O)C(=O)N[C@@H](CCCCN)C(=O)N[C@@H](CCC(N)=O)C(=O)N[C@@H](CCCCN)C(=O)N3)NC(=O)[C@H](CCCCN)NC(=O)[C@H](CCCCN)NC(=O)[C@H](CC(N)=O)NC(=O)[C@H](CCSC)NC2=O` [Compound 15] (H-NMD[Nle]RCSASVECKQKCLKAIGSIFGKCMNKKCKCYPR-NH2; disulfide 6-27, 12-32, 16-34), the IC50 amounted to 120 pM.

(Values after US11780893B2, “Kv1.3 blockers” (Zealand Pharma A/S, priority 2019, dated 2023).)
